Source: patent publication US20260258032A1, “TYROSINE KINASE 2 INHIBITORS AND USES THEREOF” (BIOGEN MA INC., priority 2022, published 2026)
Structures can show the parent of a compound that is named as a salt.

Key:
[1] = tested on: Tyk2 kinase activity on STAT4; assay: pSTAT4 cell assay (MSD, NK92 cells); format: cell-based; details: compounds 1 hr, stimulated 15 minutes
Protocol: The inhibitory potency of compounds of the disclosure against the Tyk2 kinase activity on STAT4 was evaluated using an MSD-platform plate-based assay format. NK92 cells natively expressing STAT4 and Tyk2 were serum-starved to reduce background phosphorylation levels, then cells were treated compounds for 1 hr with a 10-point four-fold dilution series starting at 10 μM. Cells were then stimulated with 30 ng/mL IL2 for 15 minutes. Cells were lysed and […] levels were quantitated using an MSD plate-based assay with anti-STAT4 antibodies. The data were normalized and the percent activity versus log concentration of compound were fitted with a 4-parameter logistic model to generate to generate IC50 curves.

JH2 domain of human Tyk2 = target: T1, JH2 domain of human Tyk2 (Homo sapiens, UniProt P29597); assay: JH2 biochemical assay (TR-FRET probe displacement); format: binding
T1 construct: 10×His-tagged TYK2 JH2 domain (amino acid 575-876)
Protocol: The inhibitory potency of compounds of the disclosure against the kinase activity of recombinantly generated JH2 domain of human Tyk2 was evaluated in a plate-based assay using a TR-FRET assay platform. Briefly, 2 nM of recombinant JH2 domain [10×His-tagged TYK2 JH2 domain (amino acid 575-876)] was combined with 2 nM probe ((S)-6-amino-9-(2-carboxy-4-((1-(3-(8-methyl-5-(methylamino)-8H-imidazo[4,5-d]thiazolo[5,4-b]pyridin-2-yl)phenyl)ethyl)carbamoyl)phenyl)-3-iminio-5-sulfo-3H-xanthene-4-sulfonate), 0.1 nM Tb-labeled anti-His antibody, and compounds of disclosure for 60 minutes. Compounds are tested at either […] top concentration, 10 points of 3-fold dilution. The TR-FRET signal […] by compounds and signal was calculated by taking the ratio of fluorescence at 520 nm and 495 nm. The data was normalized and the percent activity versus log concentration of compound was fitted with a 4-parameter logistic model to generate IC50 curves.

[2] = TR-FRET probe displacement, JH2 domain of human Tyk2

T1 sequence (P29597 575-876): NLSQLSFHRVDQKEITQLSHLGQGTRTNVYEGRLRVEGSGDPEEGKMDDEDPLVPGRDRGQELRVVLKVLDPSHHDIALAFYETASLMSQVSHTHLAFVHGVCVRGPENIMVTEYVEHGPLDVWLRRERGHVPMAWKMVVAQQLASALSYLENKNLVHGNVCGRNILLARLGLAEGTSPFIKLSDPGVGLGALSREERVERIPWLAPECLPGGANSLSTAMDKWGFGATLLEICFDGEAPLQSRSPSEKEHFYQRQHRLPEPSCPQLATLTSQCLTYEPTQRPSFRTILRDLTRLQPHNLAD

Row | SMILES | IC50 [1] [nM] | IC50 (JH2 domain of human Tyk2; JH2 biochemical assay) [nM] | further results
1 | CO[C@H]1C[C@H](Oc2cc(N3CC4(CC4)c4cnc(NC(C)=O)cc43)nc(C(C)(F)F)c2)C1 [Example 92, N-(1′-(6-(1,1-difluoroethyl)-4-((1r,3r)-3-methoxycyclobutoxy)pyridin-2-yl)-1′,2′-dihydrospiro[cyclopropane-1,3′-pyrrolo[3,2-c]pyridin]-6′-yl)acetamide] | 10 to 100 | – | –
2 | COC1(c2cc(C)cc(N3CC4(CC4)c4cnc(NC(C)=O)cc43)n2)CCOC1 (centres unmarked) [Example 96, N-(1′-(6-(3-methoxytetrahydrofuran-3-yl)-4-methylpyridin-2-yl)-1′,2′-dihydrospiro[cyclopropane-1,3′-pyrrolo[3,2-c]pyridin]-6′-yl)acetamide] | 10 to 100 | – | –
3 | CC(=O)Nc1cc2c(cn1)C1(CC1)CN2c1cc(C)nc(-c2ccccc2)n1 [Example 105, N-(1′-(6-methyl-2-phenylpyrimidin-4-yl)-1′,2′-dihydrospiro[cyclopropane-1,3′-pyrrolo[3,2-c]pyridin]-6′-yl)acetamide] | ≥ 1000 | – | –
4 | CC(=O)Nc1cc2c(cn1)C1(CC1)CN2c1cc(C)nc(-c2cccnc2)n1 [Example 106, N-(1′-(6-methyl-2-(pyridin-3-yl)pyrimidin-4-yl)-1′,2′-dihydrospiro[cyclopropane-1,3′-pyrrolo[3,2-c]pyridin]-6′-yl)acetamide] | ≥ 1000 | – | –
5 | CC(=O)Nc1cc2c(cn1)C1(CC1)CN2c1cc(C)nc(-c2ccncc2)n1 [Example 107, N-(1′-(6-methyl-2-(pyridin-4-yl)pyrimidin-4-yl)-1′,2′-dihydrospiro[cyclopropane-1,3′-pyrrolo[3,2-c]pyridin]-6′-yl)acetamide] | ≥ 1000 | – | –
6 | CC(=O)Nc1cc2c(cn1)C1(CC1)CN2c1cc(C)nc(-c2ncccn2)n1 [Example 108, N-(1′-(6-methyl-[2,2′-bipyrimidin]-4-yl)-1′,2′-dihydrospiro[cyclopropane-1,3′-pyrrolo[3,2-c]pyridin]-6′-yl)acetamide] | ≥ 1000 | – | –
7 | CC(=O)Nc1cc2c(cn1)C1(CC1)CN2c1cc(C)nc(-c2coc(C)n2)n1 [Example 109, N-(1′-(6-methyl-2-(2-methyloxazol-4-yl)pyrimidin-4-yl)-1′,2′-dihydrospiro[cyclopropane-1,3′-pyrrolo[3,2-c]pyridin]-6′-yl)acetamide] | 100 to 1000 | – | –
8 | CC(=O)Nc1cc2c(cn1)C1(CC1)CN2c1cc(C)nc(-n2nc(C)cc2C)n1 [Example 110, N-(1′-(2-(3,5-dimethyl-1H-pyrazol-1-yl)-6-methylpyrimidin-4-yl)-1′,2′-dihydrospiro[cyclopropane-1,3′-pyrrolo[3,2-c]pyridin]-6′-yl)acetamide] | ≥ 1000 | – | –
9 | CC(=O)Nc1cc2c(cn1)C1(CC1)CN2c1cc(C)nc(-c2cccc(F)c2)n1 [Example 111, N-(1′-(2-(3-fluorophenyl)-6-methylpyrimidin-4-yl)-1′,2′-dihydrospiro[cyclopropane-1,3′-pyrrolo[3,2-c]pyridin]-6′-yl)acetamide] | ≥ 1000 | – | –
10 | CC(=O)Nc1cc2c(cn1)C1(CC1)CN2c1cc(C)nc(-c2ccccn2)n1 [Example 112, N-(1′-(6-methyl-2-(pyridin-2-yl)pyrimidin-4-yl)-1′,2′-dihydrospiro[cyclopropane-1,3′-pyrrolo[3,2-c]pyridin]-6′-yl)acetamide] | ≥ 1000 | – | –
11 | CC(=O)Nc1cc2c(cn1)C1(CC1)CN2c1cc(C)nc(N(C)C(C)C)n1 [Example 115, N-(1′-(2-(isopropyl(methyl)amino)-6-methylpyrimidin-4-yl)-1′,2′-dihydrospiro[cyclopropane-1,3′-pyrrolo[3,2-c]pyridin]-6′-yl)acetamide] | ≥ 1000 | – | –
12 | CC(=O)Nc1cc2c(cn1)C1(CC1)CN2c1cc(C)nc(C2CC2(C)C)n1 (centres unmarked) [Example 124, N-(1′-(2-(2,2-dimethylcyclopropyl)-6-methylpyrimidin-4-yl)-1′,2′-dihydrospiro[cyclopropane-1,3′-pyrrolo[3,2-c]pyridin]-6′-yl)acetamide] | 10 to 100 | – | –
13 | CC(=O)Nc1cc2c(cn1)C1(CC1)CN2c1cc(OCC2(C)COC2)nc(C(C)(F)F)n1 [Example 139, N-(1′-(2-(1,1-difluoroethyl)-6-((3-methyloxetan-3-yl)methoxy)pyrimidin-4-yl)-1′,2′-dihydrospiro[cyclopropane-1,3′-pyrrolo[3,2-c]pyridin]-6′-yl)acetamide trifluoroacetate] | ≥ 1000 | – | –
14 | CC(=O)Nc1cc2c(cn1)C1(CC1)CN2c1cc(Oc2cnccn2)nc(C(C)(F)F)n1 [Example 146, N-(1′-(2-(1,1-difluoroethyl)-6-(pyrazin-2-yloxy)pyrimidin-4-yl)-1′,2′-dihydrospiro[cyclopropane-1,3′-pyrrolo[3,2-c]pyridin]-6′-yl)acetamide] | ≥ 1000 | – | –
15 | CC(=O)Nc1cc2c(cn1)C1(CC1)CN2c1cc(C)cc(-c2cnn(C)c2C(F)F)n1 [Example 262, N-(1′-(6-(5-(difluoromethyl)-1-methyl-1H-pyrazol-4-yl)-4-methylpyridin-2-yl)-1′,2′-dihydrospiro[cyclopropane-1,3′-pyrrolo[3,2-c]pyridin]-6′-yl)acetamide trifluoroacetate] | – | 10 to 100 | –
16 | CC(=O)Nc1cc2c(cn1)C1(CC1)CN2c1cc(C)cc(-c2cnn(C3COC3)c2)n1 [Example 265, N-(1′-(4-methyl-6-(1-(oxetan-3-yl)-1H-pyrazol-4-yl)pyridin-2-yl)-1′,2′-dihydrospiro[cyclopropane-1,3′-pyrrolo[3,2-c]pyridin]-6′-yl)acetamide trifluoroacetate] | – | 10 to 100 | –
17 | CC(=O)Nc1cc2c(cn1)C1(CC1)CN2c1cc(C)cc(-c2cnn(CC3CC3)c2)n1 [Example 266, N-(1′-(6-(1-(cyclopropylmethyl)-1H-pyrazol-4-yl)-4-methylpyridin-2-yl)-1′,2′-dihydrospiro[cyclopropane-1,3′-pyrrolo[3,2-c]pyridin]-6′-yl)acetamide trifluoroacetate] | – | 10 to 100 | –
18 | COc1ccc(-c2cc(C)cc(N3CC4(CC4)c4cnc(NC(C)=O)cc43)n2)cn1 [Example 267, N-(1′-(6′-methoxy-4-methyl-[2,3′-bipyridin]-6-yl)-1′,2′-dihydrospiro[cyclopropane-1,3′-pyrrolo[3,2-c]pyridin]-6′-yl)acetamide trifluoroacetate] | – | 100 to 1000 | –
19 | CC(=O)Nc1cc2c(cn1)C1(CC1)CN2c1cc(C)cc(-c2cnn(C3CNC3)c2)n1 [Example 268, N-(1′-(6-(1-(azetidin-3-yl)-1H-pyrazol-4-yl)-4-methylpyridin-2-yl)-1′,2′-dihydrospiro[cyclopropane-1,3′-pyrrolo[3,2-c]pyridin]-6′-yl)acetamide trifluoroacetate] | – | 100 to 1000 | –
20 | CC(=O)Nc1cc2c(cn1)C1(CC1)CN2c1cc(C)nc(-c2cnn(C3CNC3)c2)n1 [Example 269, N-(1′-(2-(1-(azetidin-3-yl)-1H-pyrazol-4-yl)-6-methylpyrimidin-4-yl)-1′,2′-dihydrospiro[cyclopropane-1,3′-pyrrolo[3,2-c]pyridin]-6′-yl)acetamide trifluoroacetate] | – | 100 to 1000 | –
21 | CC(=O)Nc1cc2c(cn1)C1(CCNCC1)CN2c1nccc(C(C)(F)F)n1 [Example 270, N-(1′-(4-(1,1-difluoroethyl)pyrimidin-2-yl)-1′,2′-dihydrospiro[piperidine-4,3′-pyrrolo[3,2-c]pyridin]-6′-yl)acetamide] | – | ≥ 1000 | –
22 | CC(=O)Nc1cc2c(cn1)C1(CCNCC1)CN2c1ccnc(C(C)(F)F)n1 [Example 271, N-(1′-(2-(1,1-difluoroethyl)pyrimidin-4-yl)-1′,2′-dihydrospiro[piperidine-4,3′-pyrrolo[3,2-c]pyridin]-6′-yl)acetamide] | – | ≥ 1000 | –
23 | CC(=O)Nc1cc2c(cn1)C1(CCNCC1)CN2c1cccc(C(C)(F)F)n1 [Example 272, N-(1′-(6-(1,1-difluoroethyl)pyridin-2-yl)-1′,2′-dihydrospiro[piperidine-4,3′-pyrrolo[3,2-c]pyridin]-6′-yl)acetamide] | – | ≥ 1000 | –
24 | CC(=O)Nc1cc2c(cn1)C1(CC1)CN2c1cc(C)nc(OCC(F)(F)F)n1 [Example 361, N-(1′-(6-methyl-2-(2,2,2-trifluoroethoxy)pyrimidin-4-yl)-1′,2′-dihydrospiro[cyclopropane-1,3′-pyrrolo[3,2-c]pyridin]-6′-yl)acetamide trifluoroacetate] | – | 10 to 100 | –
25 | CC(=O)Nc1cc2c(cn1)C1(CC1)CN2c1cc(C)nc(OCC2CCO2)n1 (centres unmarked) [Example 380, N-(1′-(6-methyl-2-(oxetan-2-ylmethoxy)pyrimidin-4-yl)-1′,2′-dihydrospiro[cyclopropane-1,3′-pyrrolo[3,2-c]pyridin]-6′-yl)acetamide trifluoroacetate] | – | – | IC50 (JH2 domain of human Tyk2; [2]): 10 to 100 nM
26 | CC(=O)Nc1cc2c(cn1)C1(CC1)CN2c1cc(-c2cnn(CC#N)c2)nc(C(C)(F)F)n1 [Example 393, N-(1′-(6-(1-(cyanomethyl)-1H-pyrazol-4-yl)-2-(1,1-difluoroethyl)pyrimidin-4-yl)-1′,2′-dihydrospiro[cyclopropane-1,3′-pyrrolo[3,2-c]pyridin]-6′-yl)acetamide] | – | – | IC50 (JH2 domain of human Tyk2; [2]): ≤ 10 nM
